Results reported in ChEMBL document CHEMBL1201862, “PubChem BioAssay data set” (2004).
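1) Cells in 96-well plates. 2) Compound, 48 h, 5 concentrations. 3) Linear interpolation between surrounding doses. 4) Unreached endpoint = highest concentration. At the GI50, growth is halved.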 Active and inactive are the calls of the source. Cut-off read from the data, not from the text of the source: active = GI50 up to about 1.1 µM and inactive = higher.

How the values were obtained:
Assay in all cases: NCI-60 cell line screen, 48 h
SK-MEL-2 = system: SK-MEL-2
SK-MEL-5 = system: SK-MEL-5
COLO 205 = system: COLO 205
SN12C = system: SN12C
LOX IMVI = system: LOX IMVI
NCI-H226 = system: NCI-H226
K562 = system: K562
SW-620 = system: SW-620
HT-29 = system: HT-29
NCI-H460 = system: NCI-H460
SK-MEL-28 = system: SK-MEL-28
EKVX = system: EKVX
KM12 = system: KM12
OVCAR-8 = system: OVCAR-8
SK-OV-3 = system: SK-OV-3
BT-549 = system: BT-549
ACHN = system: ACHN
Malme-3M = system: Malme-3M
MCF7 = system: MCF7
SF-539 = system: SF-539

Structure (SMILES) | GI50 (SK-MEL-2) | GI50 (SK-MEL-5) | GI50 (COLO 205) | GI50 (SN12C) | GI50 (LOX IMVI) | GI50 (NCI-H226) | GI50 (K562) | GI50 (SW-620) | GI50 (HT-29) | GI50 (NCI-H460) | GI50 (SK-MEL-28) | GI50 (EKVX) | GI50 (KM12) | GI50 (OVCAR-8) | GI50 (SK-OV-3) | GI50 (BT-549) | GI50 (ACHN) | GI50 (Malme-3M) | GI50 (MCF7) | GI50 (SF-539)
O=C(O)c1cc(O)nc(S)n1 | > 100 µM (inactive) | > 100 µM (inactive) | > 100 µM (inactive) | > 100 µM (inactive) | > 100 µM (inactive) | > 100 µM (inactive) | > 100 µM (inactive) | > 100 µM (inactive) | > 100 µM (inactive) | > 100 µM (inactive) | > 100 µM (inactive) | > 100 µM (inactive) | > 100 µM (inactive) | > 100 µM (inactive) | > 100 µM (inactive) | > 100 µM (inactive) | > 100 µM (inactive) | > 100 µM (inactive) | > 100 µM (inactive) | –
Nc1ccccc1.O=P(O)(O)c1ccccc1 | > 100 µM (inactive) | > 100 µM (inactive) | > 100 µM (inactive) | > 100 µM (inactive) | > 100 µM (inactive) | > 100 µM (inactive) | > 100 µM (inactive) | > 100 µM (inactive) | > 100 µM (inactive) | > 100 µM (inactive) | > 100 µM (inactive) | > 100 µM (inactive) | > 100 µM (inactive) | > 100 µM (inactive) | > 100 µM (inactive) | > 100 µM (inactive) | > 100 µM (inactive) | > 100 µM (inactive) | > 100 µM (inactive) | –
COc1cc(OC)cc(Oc2nc3c(N)cc(C(F)(F)F)cc3nc2-c2ccccc2)c1 | 20 µM (inactive) | 37.3 µM (inactive) | 20.1 µM (inactive) | – | 20.4 µM (inactive) | 43.2 µM (inactive) | 2.71 µM (inactive) | 28.5 µM (inactive) | 15.9 µM (inactive) | 30.2 µM (inactive) | 61.8 µM (inactive) | 25.5 µM (inactive) | 13.8 µM (inactive) | 46.3 µM (inactive) | 44.4 µM (inactive) | > 100 µM (inactive) | 28.5 µM (inactive) | – | 8.93 µM (inactive) | 99.3 µM (inactive)
COc1cc([C@@H]2c3cc4c(cc3C[C@@H]3COC(=O)C32)OCO4)cc(OC)c1O (stereo partly drawn) | – | 0.0221 µM (active) | 0.0306 µM (active) | 0.143 µM (active) | 0.0426 µM (active) | 1.39 µM (inactive) | 0.031 µM (active) | 0.0306 µM (active) | 0.034 µM (active) | 0.032 µM (active) | – | 0.0284 µM (active) | 0.0277 µM (active) | – | 0.0287 µM (active) | 0.038 µM (active) | 0.03 µM (active) | 0.0121 µM (active) | 0.017 µM (active) | 0.0188 µM (active)
COc1ccc(/N=C2\S/C(=N\C(=N\c3ccccc3)SCc3ccccc3)N(c3ccccc3)\C2=N/c2ccc(OC)cc2)cc1 | > 100 µM (inactive) | > 100 µM (inactive) | > 100 µM (inactive) | > 100 µM (inactive) | – | > 100 µM (inactive) | > 100 µM (inactive) | > 100 µM (inactive) | > 100 µM (inactive) | – | 62.4 µM (inactive) | > 100 µM (inactive) | > 100 µM (inactive) | > 100 µM (inactive) | – | > 100 µM (inactive) | – | > 100 µM (inactive) | > 100 µM (inactive) | –
CCOC(=O)C(O)(CC1=NC(C(=O)OC)(C(=O)OC)C(c2cccc(C=O)c2)O1)C(=O)OCC (stereo not drawn) | > 100 µM (inactive) | > 100 µM (inactive) | > 100 µM (inactive) | > 100 µM (inactive) | > 100 µM (inactive) | > 100 µM (inactive) | > 100 µM (inactive) | > 100 µM (inactive) | > 100 µM (inactive) | > 100 µM (inactive) | > 100 µM (inactive) | > 100 µM (inactive) | > 100 µM (inactive) | > 100 µM (inactive) | > 100 µM (inactive) | > 100 µM (inactive) | > 100 µM (inactive) | – | > 100 µM (inactive) | –
COc1ccc(N2C(=O)C3c4[nH]c5ccccc5c4C4CCC(C(C)C)CC4C3C2=O)cc1 (stereo not drawn) | > 100 µM (inactive) | > 100 µM (inactive) | > 100 µM (inactive) | > 100 µM (inactive) | > 100 µM (inactive) | > 100 µM (inactive) | > 100 µM (inactive) | > 100 µM (inactive) | > 100 µM (inactive) | > 100 µM (inactive) | > 100 µM (inactive) | > 100 µM (inactive) | > 100 µM (inactive) | > 100 µM (inactive) | 37.6 µM (inactive) | > 100 µM (inactive) | > 100 µM (inactive) | 42.9 µM (inactive) | > 100 µM (inactive) | –
NC(=S)Nc1ccc(S(=O)(=O)Nc2ccc(S(N)(=O)=O)cc2)cc1 | > 100 µM (inactive) | > 100 µM (inactive) | > 100 µM (inactive) | > 100 µM (inactive) | > 100 µM (inactive) | > 100 µM (inactive) | > 100 µM (inactive) | > 100 µM (inactive) | > 100 µM (inactive) | > 100 µM (inactive) | > 100 µM (inactive) | > 100 µM (inactive) | > 100 µM (inactive) | > 100 µM (inactive) | – | > 100 µM (inactive) | > 100 µM (inactive) | > 100 µM (inactive) | > 100 µM (inactive) | –
